Test results as given in patent US11053204B2, “Pyrimidinyloxy benzene derivatives as herbicides” (FMC Corporation, priority 2015, dated 2021).

Assays:
Type in all cases: in vivo
[1] = tested on: Italian ryegrass (Lolium multiflorum); assay: Test A preemergence, visual injury rating
Outline: (§1)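 Injury scores run from 0, no effect, to 100, complete control, judged by eye against untreated plants roughly 10 days after treatment. Chemicals carried a surfactant in a non-phytotoxic solvent and went onto loam–sand soil preemergence or onto one- to two-leaf seedlings postemergence.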

[2] = tested on: barnyardgrass (Echinochloa crus-galli); assay: Test A preemergence, visual injury rating
Outline: as §1

[3] = tested on: giant foxtail (Setaria faberii); assay: Test A preemergence, visual injury rating
Outline: as §1

kochia (Kochia scoparia) [4] = assay: Test A preemergence, visual injury rating
Outline: as §1

[5] = tested on: pigweed (Amaranthus retroflexus); assay: Test A preemergence, visual injury rating
Outline: as §1

[6] = tested on: ragweed (common ragweed, Ambrosia elatior); assay: Test A preemergence, visual injury rating
Outline: as §1

[7] = tested on: Italian ryegrass (Lolium multiflorum); assay: Test A postemergence, visual injury rating; conditions: 0 is no effect, 100 is complete control
Outline: as §1

[8] = tested on: barnyardgrass (Echinochloa crus-galli); assay: Test A postemergence, visual injury rating; conditions: 0 is no effect, 100 is complete control
Outline: as §1

[9] = tested on: blackgrass (Alopecurus myosuroides); assay: Test A postemergence, visual injury rating; conditions: 0 is no effect, 100 is complete control
Outline: as §1

corn (Zea mays) = assay: Test A postemergence, visual injury rating; conditions: 0 is no effect, 100 is complete control
Outline: as §1

[10] = tested on: galium (catchweed bedstraw, Galium aparine); assay: Test A postemergence, visual injury rating; conditions: 0 is no effect, 100 is complete control
Outline: as §1

[11] = tested on: giant foxtail (Setaria faberii); assay: Test A postemergence, visual injury rating; conditions: 0 is no effect, 100 is complete control
Outline: as §1

kochia (Kochia scoparia) [12] = assay: Test A postemergence, visual injury rating; conditions: 0 is no effect, 100 is complete control
Outline: as §1

[13] = tested on: pigweed (Amaranthus retroflexus); assay: Test A postemergence, visual injury rating; conditions: 0 is no effect, 100 is complete control
Outline: as §1

[14] = tested on: ragweed (common ragweed, Ambrosia elatior); assay: Test A postemergence, visual injury rating; conditions: 0 is no effect, 100 is complete control
Outline: as §1

[15] = tested on: wheat (Triticum aestivum); assay: Test A postemergence, visual injury rating; conditions: 0 is no effect, 100 is complete control
Outline: as §1

[16] = tested on: barnyardgrass (Echinochloa crus-galli); assay: Test B flooded paddy test, plant response rating; conditions: Echinochloa crus-galli, 312 h; 250 g ai/ha; Flood; scale of 0 to 100 where 0 is no effect and 100 is complete control; 13 to 15 days
Outline: (§2)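 Ratings were visual and made relative to untreated controls after 13 to 15 greenhouse days.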

[17] = tested on: ducksalad (Heteranthera limosa); assay: Test B flooded paddy test, plant response rating; conditions: Heteranthera limosa, 312 h; 250 g ai/ha; Flood; scale of 0 to 100 where 0 is no effect and 100 is complete control; 13 to 15 days
Outline: as §2

rice (Oryza sativa) = assay: Test B flooded paddy test, plant response rating; conditions: Oryza sativa, 312 h; 250 g ai/ha; Flood; scale of 0 to 100 where 0 is no effect and 100 is complete control; 13 to 15 days
Outline: as §2

[18] = tested on: sedge, umbrella (small-flower umbrella sedge, Cyperus difformis); assay: Test B flooded paddy test, plant response rating; conditions: Cyperus difformis, 312 h; 250 g ai/ha; Flood; scale of 0 to 100 where 0 is no effect and 100 is complete control; 13 to 15 days
Outline: as §2

[19] = 31 g ai/ha, 0 to 100 scale, 0 no effect, 100 complete control
[20] = 31 g ai/ha, 0 to 100 scale, approximately 10 days

In the case of `O=C(OCCC(F)(F)F)c1cc(C(F)(F)F)ccc1Oc1ncc(Cl)cn1` [Compound 53], the “Plant response rating, Ryegrass, Italian” value [1, 19] is reported as 0, the pest or weed control at 125 g/ha ([1]; Lolium multiflorum, pre-emergence, 240 h, 125 g ai/ha, 0 to 100 scale (0 no effect, 100 complete control), read-out: Ryegrass, Italian plant response rating) is reported as 0% and the “Plant response rating, Barnyardgrass” value [2, 19] is reported as 0. For the same compound, the pest or weed control at 125 g/ha ([2]; Echinochloa crus-galli, pre-emergence, 240 h, 125 g ai/ha, 0 to 100 scale (0 no effect, 100 complete control), read-out: Barnyardgrass plant response rating) was 0%, the “Plant response rating, Foxtail, Giant” value [3, 19] was 0 and the pest or weed control at 125 g/ha ([3]; Setaria faberi, pre-emergence, 240 h, 125 g ai/ha, 0 to 100 scale (0 no effect, 100 complete control), read-out: Foxtail, Giant plant response rating) was 0%. For the same compound, the “Plant response rating, Kochia” value (kochia (Kochia scoparia) [4]; [19]) was 0, the pest or weed control at 125 g/ha (kochia (Kochia scoparia) [4]; Bassia scoparia, pre-emergence, 240 h, 125 g ai/ha, 0 to 100 scale (0 no effect, 100 complete control), read-out: Kochia plant response rating) was 0% and the “Plant response rating, Pigweed” value [5, 19] was 0. The pest or weed control at 125 g/ha ([5]; Amaranthus retroflexus, pre-emergence, 240 h, 125 g ai/ha, 0 to 100 scale (0 no effect, 100 complete control), read-out: Pigweed plant response rating) was 0%, the “Plant response rating, Ragweed” value [6, 19] was 0 and the pest or weed control at 125 g/ha ([6]; Ambrosia artemisiifolia, pre-emergence, 240 h, 125 g ai/ha, 0 to 100 scale (0 no effect, 100 complete control), read-out: Ragweed plant response rating) was 0%. For the same compound, the “Ryegrass, Italian plant response rating” value [7, 20] was 0, the pest or weed control at 125 g/ha ([7]; Lolium multiflorum, post-emergence, 240 h, 125 g ai/ha, read-out: Ryegrass, Italian plant response rating (0 to 100 scale)) was 0% and the “Barnyardgrass plant response rating” value [8, 20] was 0. The pest or weed control at 125 g/ha ([8]; Echinochloa crus-galli, post-emergence, 240 h, 125 g ai/ha, read-out: Barnyardgrass plant response rating (0 to 100 scale)) was 0%, the “Blackgrass plant response rating” value [9, 20] was 0 and the pest or weed control at 125 g/ha ([9]; Alopecurus myosuroides, post-emergence, 240 h, 125 g ai/ha, read-out: Blackgrass plant response rating (0 to 100 scale)) was 0%. For the same compound, the “Corn plant response rating” value (corn (Zea mays); [20]) was 0, the plant injury at 125 g/ha (corn (Zea mays); Zea mays, post-emergence, 240 h, 125 g ai/ha, read-out: Corn plant response rating (0 to 100 scale)) was 0% and the “Galium plant response rating” value [10, 20] was 0. For the same compound, the pest or weed control at 125 g/ha ([10]; Galium, post-emergence, 240 h, 125 g ai/ha, read-out: Galium plant response rating (0 to 100 scale)) was 0%, the “Foxtail, Giant plant response rating” value [11, 20] was 0 and the pest or weed control at 125 g/ha ([11]; Setaria faberi, post-emergence, 240 h, 125 g ai/ha, read-out: Foxtail, Giant plant response rating (0 to 100 scale)) was 0%. For the same compound, the “Kochia plant response rating” value (kochia (Kochia scoparia) [12]; [20]) was 0, the pest or weed control at 125 g/ha (kochia (Kochia scoparia) [12]; Bassia scoparia, post-emergence, 240 h, 125 g ai/ha, read-out: Kochia plant response rating (0 to 100 scale)) was 0% and the “Pigweed plant response rating” value [13, 20] was 0. For the same compound, the pest or weed control at 125 g/ha ([13]; Amaranthus retroflexus, post-emergence, 240 h, 125 g ai/ha, read-out: Pigweed plant response rating (0 to 100 scale)) was 0%, the “Ragweed plant response rating” value [14, 20] was 0 and the pest or weed control at 125 g/ha ([14]; Ambrosia artemisiifolia, post-emergence, 240 h, 125 g ai/ha, read-out: Ragweed plant response rating (0 to 100 scale)) was 0%. The “Wheat plant response rating” value [15, 20] was 0, the plant injury at 125 g/ha ([15]; Triticum aestivum, post-emergence, 240 h, 125 g ai/ha, read-out: Wheat plant response rating (0 to 100 scale)) was 0% and the pest or weed control at 250 g/ha [16] was 0%. It also gave a pest or weed control at 250 g/ha [17] of 0%, a plant injury at 250 g/ha (rice (Oryza sativa)) of 0% and a pest or weed control at 250 g/ha [18] of 0%.
